Experimental data reported in the NIST ThermoML archive (doi:10.1016/j.jct.2012.02.023).
Numbers after ± are expanded uncertainties.

Assay: xn = mol fraction of the nth substance listed
Details: 101 kPa, Liquid; for speed of sound: Sing-around technique in a fixed-path interferometer; for mass density: Vibrating tube method

CCCC[n+]1cccc(C)c1.F[B-](F)(F)F [1-butyl-3-methylpyridinium tetrafluoroborate] + CO
Details | mass density, 293.15 K [kg/m3] | mass density, 303.15 K [kg/m3] | mass density, 313.15 K [kg/m3] | mass density, 323.15 K [kg/m3] | speed of sound, 293.15 K [m/s] | speed of sound, 303.15 K [m/s] | speed of sound, 313.15 K [m/s] | speed of sound, 323.15 K [m/s]
x1 = 0.0481 | 876.902 ± 0.5 | 868.149 ± 0.5 | 858.994 ± 0.51 | 850.146 ± 0.51 | 1203.1 ± 1.3 | 1173.4 ± 1.3 | 1143.9 ± 1.3 | 1114.7 ± 1.3
x1 = 0.1001 | 940.659 ± 0.42 | 932.121 ± 0.43 | 923.594 ± 0.43 | 915.022 ± 0.44 | 1271 ± 1.3 | 1243.3 ± 1.3 | 1215.7 ± 1.3 | 1188.3 ± 1.3
x1 = 0.1548 | 988.767 ± 0.32 | 980.512 ± 0.33 | 972.213 ± 0.33 | 964.125 ± 0.33 | 1330.9 ± 1.3 | 1304.2 ± 1.3 | 1277.6 ± 1.3 | 1251.7 ± 1.3
x1 = 0.2003 | 1019.3 ± 0.25 | 1011.19 ± 0.25 | 1003.35 ± 0.25 | 995.225 ± 0.26 | 1370 ± 1.3 | 1344 ± 1.3 | 1318.1 ± 1.3 | 1292.4 ± 1.3
x1 = 0.2487 | 1045.53 ± 0.21 | 1037.61 ± 0.21 | 1029.56 ± 0.21 | 1021.63 ± 0.21 | 1407.2 ± 1.3 | 1381.6 ± 1.3 | 1356 ± 1.3 | 1330.8 ± 1.3
x1 = 0.297 | 1066.65 ± 0.18 | 1058.61 ± 0.17 | 1050.84 ± 0.17 | 1042.82 ± 0.17 | 1433.6 ± 1.3 | 1408.1 ± 1.3 | 1382.9 ± 1.3 | 1358 ± 1.3
x1 = 0.4013 | 1101.04 ± 0.18 | 1093.31 ± 0.18 | 1085.48 ± 0.17 | 1077.9 ± 0.17 | 1482.7 ± 1.3 | 1457.9 ± 1.3 | 1433 ± 1.3 | 1415 ± 1.3
x1 = 0.4969 | 1123.82 ± 0.19 | 1116.42 ± 0.19 | 1108.81 ± 0.18 | 1101.29 ± 0.18 | 1514.2 ± 1.4 | 1489.3 ± 1.4 | 1464.9 ± 1.4 | 1443.1 ± 1.3
x1 = 0.5974 | 1142.04 ± 0.22 | 1134.73 ± 0.21 | 1127.47 ± 0.21 | 1120.24 ± 0.21 | 1538.7 ± 1.4 | 1514.1 ± 1.4 | 1489.9 ± 1.4 | 1466.2 ± 1.4
x1 = 0.6972 | 1156.18 ± 0.25 | 1149.17 ± 0.24 | 1142.08 ± 0.24 | 1135 ± 0.24 | 1557.9 ± 1.4 | 1533.5 ± 1.4 | 1509.5 ± 1.4 | 1485.8 ± 1.4
x1 = 0.8437 | 1172.39 ± 0.31 | 1165.51 ± 0.3 | 1158.69 ± 0.3 | 1151.77 ± 0.29 | 1580.4 ± 1.5 | 1556.2 ± 1.5 | 1532.6 ± 1.5 | 1509.2 ± 1.5
x1 = 0.8984 | 1177.43 ± 0.33 | 1170.57 ± 0.33 | 1163.79 ± 0.32 | 1156.96 ± 0.32 | 1587.2 ± 1.5 | 1562.8 ± 1.5 | 1539.3 ± 1.5 | 1516 ± 1.5
x1 = 0.9692 | 1183.29 ± 0.37 | 1176.48 ± 0.36 | 1169.74 ± 0.36 | 1162.98 ± 0.35 | 1595.6 ± 1.6 | 1571.3 ± 1.6 | 1547.5 ± 1.6 | 1524.5 ± 1.6

CCCC[n+]1ccc(C)cc1.F[B-](F)(F)F [1-butyl-4-methylpyridinium tetrafluoroborate] + CCO
Details | mass density, 293.15 K [kg/m3] | mass density, 303.15 K [kg/m3] | mass density, 313.15 K [kg/m3] | mass density, 323.15 K [kg/m3] | speed of sound, 293.15 K [m/s] | speed of sound, 303.15 K [m/s] | speed of sound, 313.15 K [m/s] | speed of sound, 323.15 K [m/s]
x1 = 0.0507 | 854.988 ± 0.42 | 846.802 ± 0.43 | 838.56 ± 0.43 | 830.183 ± 0.43 | 1206.5 ± 1.3 | 1176.7 ± 1.3 | 1147.1 ± 1.3 | 1117.3 ± 1.3
x1 = 0.1 | 904.491 ± 0.35 | 896.578 ± 0.35 | 888.401 ± 0.35 | 880.152 ± 0.36 | 1246.2 ± 1.3 | 1219 ± 1.3 | 1189.9 ± 1.3 | 1162.1 ± 1.3
x1 = 0.1971 | 976.866 ± 0.28 | 969.284 ± 0.28 | 961.403 ± 0.28 | 953.269 ± 0.29 | 1321.9 ± 1.4 | 1296.3 ± 1.4 | 1268.9 ± 1.4 | 1240.4 ± 1.3
x1 = 0.2912 | 1026.69 ± 0.23 | 1019.31 ± 0.23 | 1011.46 ± 0.22 | 1003.86 ± 0.23 | 1384.8 ± 1.4 | 1359.2 ± 1.4 | 1333.8 ± 1.4 | 1308.5 ± 1.4
x1 = 0.3903 | 1066.1 ± 0.22 | 1058.84 ± 0.22 | 1051.3 ± 0.21 | 1043.95 ± 0.21 | 1440.8 ± 1.4 | 1415 ± 1.4 | 1389.7 ± 1.4 | 1364.8 ± 1.4
x1 = 0.4876 | 1096.19 ± 0.23 | 1088.98 ± 0.23 | 1081.75 ± 0.22 | 1074.66 ± 0.22 | 1483.8 ± 1.4 | 1457.9 ± 1.4 | 1432.5 ± 1.4 | 1408 ± 1.4
x1 = 0.5825 | 1119.75 ± 0.25 | 1112.72 ± 0.25 | 1105.58 ± 0.24 | 1098.5 ± 0.24 | 1522.5 ± 1.4 | 1496.8 ± 1.4 | 1471.7 ± 1.4 | 1446.7 ± 1.4
x1 = 0.6879 | 1141.24 ± 0.28 | 1134.29 ± 0.28 | – | 1120.3 ± 0.27 | 1548.5 ± 1.5 | 1525.3 ± 1.5 | 1499.5 ± 1.5 | 1475.8 ± 1.5
x1 = 0.7938 | 1159.02 ± 0.31 | 1152.18 ± 0.31 | 1145.03 ± 0.3 | 1138.28 ± 0.3 | 1576.1 ± 1.5 | 1556 ± 1.5 | – | 1502.9 ± 1.5
x1 = 0.8927 | 1173 ± 0.35 | 1166.2 ± 0.34 | 1159.13 ± 0.34 | 1152.42 ± 0.33 | 1594.2 ± 1.6 | 1569.1 ± 1.6 | – | 1522.3 ± 1.5
x1 = 0.9284 | 1177.54 ± 0.36 | 1170.73 ± 0.35 | 1163.69 ± 0.35 | 1157 ± 0.34 | 1601.9 ± 1.6 | 1579.3 ± 1.6 | – | 1530.5 ± 1.6
